Results reported in patent US20090029406A1, “Npy Y4 Agonist as Therapeutic Agent for Disease Accompanied by Intestinal Tract Dysfunction” (Banyu Pharmaceutical Co., Ltd., priority 2006, published 2009).

Columns and labels:
[1] = tested on: ileum isolated from an NPY Y4 receptor knockout mouse and a wild-type mouse; experiment: Tension of ileum isolated from NPY Y4 receptor knockout and wild-type mouse (Example 5); conditions: 1 μM
Description: (§1) The ileum, proximal colon and distal colon were isolated from an NPY Y4 receptor knockout mouse and a wild-type mouse (32 to 37 weeks of age). The specimens were cut into a length of 1 cm, respectively, and were suspended in the longitudinal muscle direction under a resting tension of 0.3 g in 5 mL of Krebs-Henseleit solution oxygenated with 95% O2 and 5% CO2, while setting the temperature of a bath to 37° C. The tension was measured using an isometric transducer (TB-65 1, manufactured by Nihon Kohden), and outputs were recorded at 20 points per second using Power Lab (ADInstrument).
(§2) After equilibration for 1 hour, 1 μM mPP was applied and measurement was carried out for 20 minutes. The above-mentioned mPP was prepared such that it became a 1 mM solution in DMSO, and 5 μL of the resulting solution was applied to 5 mL of an organ bath. The action of mPP was represented by a ratio of an average tension for 20 minutes after the application to an average tension for 20 minutes before the application. The statistical calculation was performed using the Student's t-test or paired t-test.

[2] = tested on: NPY Y4 receptor knockout mice; experiment: Amount of excreted feces in NPY Y4 receptor knockout mice (Example 4); assay type: in vivo, mouse; conditions: 1 mg/kg subcutaneous, vehicle group 358±31 mg/2 h
Description: (§3) The following test was carried out using wild-type mice and NPY Y4 receptor knockout mice (male, 23 to 39 weeks of age, n=10 to 16). mPP (1 mg/kg) or saline (5 mL/kg) was subcutaneously administered to the mice. The mice were subjected to fasting at the same time of the subcutaneous administration. Feces were collected at 1 and 2 hours after the administration, and the weight of the feces was measured. The cumulative amount of feces for 2 hours was used for an analysis, and a significant difference between groups was analyzed using the Student's t-test.

wild-type mice = experiment: Amount of excreted feces in wild-type mice (Example 4); assay type: in vivo, mouse; conditions: 1 mg/kg subcutaneous
Description: as §3

[3] = tested on: proximal colon isolated from a wild-type mouse; experiment: Tension of proximal colon isolated from wild-type mouse (Example 5); conditions: 1 μM
Description: as §1, §2

[4] = tested on: mouse models of constipation induced by clonidine; experiment: Mouse models of constipation induced by clonidine, amount of excreted feces (Example 3); assay type: in vivo; conditions: clonidine 0.1 mg/kg i.p., mPP 1 mg/kg s.c. one hour later; 4 hours after clonidine (3 hours after mPP)
Description: To male mice (C57BL/6J, 18 weeks of age), clonidine (0.1 mg/kg) was intraperitoneally administered, and to a vehicle group, only saline was intraperitoneally administered. One hour after the administration of clonidine, saline (a control group) or mPP (1 mg/kg) was subcutaneously administered, and also to a vehicle group, only saline was subcutaneously administered. The mice were subjected to fasting at the same time of the intraperitoneal administration of saline or clonidine. Feces were collected at 1, 2, 3 and 4 hours after the administration, and the weight of the feces was measured. A significant difference between groups was analyzed using an analysis of variance and the Tukey's test.

[5] = tested on: distal colon isolated from a C57BL/6 mouse; experiment: Tension of isolated distal colon, organ bath (Example 2)
Description: (§4) The ileum, proximal colon and distal colon were isolated from a C57BL/6 mouse (8 to 20 weeks of age). The specimens were cut into a length of 1 cm, respectively, and were suspended in the longitudinal muscle direction under a resting tension of 0.3 g in 5 mL of Krebs-Henseleit solution (the composition is shown in Table 1) oxygenated with 95% O2 and 5% CO2, while setting the temperature of a bath to 37° C. The tension was measured using an isometric transducer (TB-651, manufactured by Nihon Kohden), and outputs were recorded at 20 points per second using Power Lab (manufactured by ADInstrument).
(§5) After equilibration for 1 hour, mPP at 0.01 μM, 0.1 μM and 1 μM was applied and measurement was carried out for 20 minutes. The above-mentioned mPP was prepared such that it became 0.01 mM, 0.1 mM and 1 mM solutions in DMSO, and 5 μL of each of the resulting solutions was applied to 5 mL of an organ bath. The action of mPP was represented by a ratio of an average tension for 20 minutes after the application to an average tension for 20 minutes before the application. The statistical calculation was performed using the paired t-test.

male mice (C57BL/6J) = experiment: Amount of excreted feces after subcutaneous administration to mice (Example 1); assay type: in vivo, mouse
Excerpt: Also, it is known that the Y4 receptor is present in the lower gastrointestinal tract. Accordingly, by administering mouse PP (mPP) to a mouse, an effect on the movement of the lower gastrointestinal tract of the mouse was studied. That is, how the amount of excreted feces was changed by the administration of mPP was observed, and a change in the gastrointestinal movement was discussed by assuming that an increase in the amount of excreted feces reflects an increase in the lower gastrointestinal tract movement.
To male mice (C57BL/6J, 15 weeks of age), mPP (0.001, 0.01, 0.1 or 1 mg/kg) was subcutaneously administered, and to a vehicle group, only saline (5 mL/kg) was subcutaneously administered. The mice were subjected to fasting at the same time of the subcutaneous administration of saline or mPP. Feces were collected at 1, 2 and 4 hours after the administration, and the weight of the feces was measured. A significant difference between groups was analyzed using an analysis of variance and the Dunnett's test.

[6] = tested on: ileum isolated from a C57BL/6 mouse; experiment: Tension of isolated ileum, organ bath (Example 2); conditions: 0.01, 0.1 and 1 μM
Description: as §4, §5

[7] = tested on: distal colon isolated from a wild-type mouse; experiment: Tension of distal colon isolated from wild-type mouse (Example 5); conditions: 1 μM
Description: as §1, §2

[8] = tested on: proximal colon isolated from a C57BL/6 mouse; experiment: Tension of isolated proximal colon, organ bath (Example 2)
Description: as §4, §5

[9] = 0.01, 0.1 and 1 μM, ratio of average tension 20 min after to 20 min before application

## mouse PP (APLEPMYPGDYATPEQMAQYETQLRRYINTLTRPRY; mouse) [mPP]
[1]
  difference in the change in the tension between wild-type and NPY Y4 receptor knockout mouse: a difference was not observed between them
[2]
  cumulative amount of feces for 2 hours: 403±43 mg/2 h
wild-type mice
  action of increasing defecation: exhibited an action of increasing defecation
wild-type mice; P<0.01 vs vehicle group (322±41 mg/2 h)
  cumulative amount of feces for 2 hours: 668±64 mg/2 h
[3]
  increase in the tension: an increase in the tension observed in the wild-type mouse
[4]
  decrease in the amount of excreted feces compared with the vehicle group: a significant decrease in the amount of excreted feces was not observed
[5]
  amplitude of automatism: an increase in the amplitude of automatism was observed
[5]; 0.01, 0.1 and 1 μM
  increase in the tension, dose dependence: increased the tension in a dose dependent manner
[5]; [9]
  maximum action on tension, of that before the application: 152%
Male mice (C57BL/6J); 0.1 mg/kg subcutaneous, P<0.05 vs vehicle group (211±18 mg/4 h)
  cumulative amount of excreted feces for 4 hours after administration: 325±22 mg/4 h
Male mice (C57BL/6J); 0.001, 0.01, 0.1 or 1 mg/kg subcutaneous, feces collected at 1, 2 and 4 hours
  action of increasing defecation (amount of excreted feces): exhibited an action of increasing defecation in a dose dependent manner
Male mice (C57BL/6J); 1 mg/kg subcutaneous, P<0.01 vs vehicle group (211±18 mg/4 h)
  cumulative amount of excreted feces for 4 hours after administration: 408±36 mg/4 h
Male mice (C57BL/6J); subcutaneous
  dose at which cumulative amount of excreted feces for 4 hours was significant compared with the vehicle group: ≥ 0.1 mg/kg
[6]
  increase in the tension: a significant increase in the tension was not observed
[7]
  increase in the tension: an increase in the tension observed in the wild-type mouse
[8]
  amplitude of automatism: an increase in the amplitude of automatism was observed
[8]; 0.01, 0.1 and 1 μM
  increase in the tension, dose dependence: increased the tension in a dose dependent manner
[8]; [9]
  maximum action on tension, of that before the application: 131%
